From US12213984B2, “Immunoregulatory agent” (KYUSHU UNIVERSITY, NATIONAL UNIVERSITY CORPORATION, priority 2015, dated 2025)
Read-outs that look alike come from different tables or passages of the source.

Target: T1, DOCK2DHR-2 (lobe B and lobe C of the DHR-2 domain of DOCK2) (Homo sapiens, UniProt Q92608)
T1 construct: polypeptide fragments corresponding to a DHR-2 domain including the lobe B and the lobe C of DOCK2; Histidine-SUMO (N); made in house; host or cells: E. coli Arctic express DE3 (pET28a); Rac in E. coli BL21 DE3 (pGEX-6P-1)
T1 sequence (Q92608 1196-1622): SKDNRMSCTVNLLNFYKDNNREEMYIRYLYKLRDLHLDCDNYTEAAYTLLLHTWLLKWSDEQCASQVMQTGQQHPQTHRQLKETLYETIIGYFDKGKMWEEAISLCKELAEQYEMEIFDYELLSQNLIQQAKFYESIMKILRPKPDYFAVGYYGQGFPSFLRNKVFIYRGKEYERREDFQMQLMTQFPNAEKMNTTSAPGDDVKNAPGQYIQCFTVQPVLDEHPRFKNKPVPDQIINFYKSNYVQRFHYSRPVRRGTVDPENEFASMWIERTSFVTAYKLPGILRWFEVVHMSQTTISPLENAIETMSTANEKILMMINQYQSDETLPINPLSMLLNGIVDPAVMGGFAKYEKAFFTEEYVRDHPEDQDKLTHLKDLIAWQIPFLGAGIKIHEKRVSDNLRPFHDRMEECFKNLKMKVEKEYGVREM
Assay: in-vitro GEF assay, Rac activation by DOCK2 DHR-2 domain with various steroid compounds (Experimental Example 2)
Assay type: biochemical
Experimental: An examination was performed using various steroid compounds to test their effects on the Rac activation induced by proteins composed of the lobe B and the lobe C of the DHR-2 domain of DOCK2.
As the steroid compounds, cholesterol 3-sulfate (hereinafter, referred to as “C3S” in some cases), cholesterol, cholesterol 3-acetate (hereinafter, referred to as “C3A” in some cases), pregnenolone 3-sulfate (hereinafter, referred to as “PREG3S” in some cases), dehydroepiandrosterone (hereinafter, referred to as “DHEA” in some cases), dehydroepiandrosterone 3-sulfate (hereinafter, referred to as “DHEA3S” in some cases), estrone 3-sulfate (hereinafter, referred to as “Estrone3S” in some cases), estriol 3-sulfate (hereinafter, referred to as “Estriol3S” in some cases), and estradiol 3-sulfate (hereinafter, referred to as “Estradiol3S” in some cases) were used.
More specifically, a DOCK2-DHR-2 domain protein prepared by the same method as described above was incubated for 20 minutes at room temperature in the presence of various steroid compounds at a predetermined concentration dissolved in DMSO or in the presence of DMSO alone (control) under the shielded condition from light, thereby preparing a pretreated substance of GEF. The concentration of DMSO was adjusted such that it became 3% (1% in the final reaction solution) in all samples. Then, by in-vitro GEF assay in which Rac and Bodipy-FL-GTP prepared by the same method as described above were used, Rac activation by the DHR-2 domain was measured.

[1] = Experimental Example 2, Table 1, read-out: IC50 against the Rac activation by DOCK2DHR-2

SMILES	IC50 [1]	IC50 (IC50 against the Rac activation by DOCK2DHR-2, Experimental Example 2, Table 1)
CC(=O)O[C@H]1CC[C@@]2(C)C(=CC[C@H]3[C@@H]4CC[C@H]([C@H](C)CCCC(C)C)[C@@]4(C)CC[C@@H]32)C1 [C3A, cholesterol 3-acetate]	> 200 µM	–
CC(C)CCC[C@@H](C)[C@H]1CC[C@H]2[C@@H]3CC=C4C[C@@H](O)CC[C@]4(C)[C@H]3CC[C@]12C [Cholesterol, cholesterol]	> 200 µM	–
C[C@]12CC[C@H](OS(=O)(=O)O)CC1=CC[C@@H]1[C@@H]2CC[C@]2(C)C(=O)CC[C@@H]12 [DHEA3S, dehydroepiandrosterone 3-sulfate]	> 200 µM	–
C[C@]12CC[C@H](O)CC1=CC[C@@H]1[C@@H]2CC[C@]2(C)C(=O)CC[C@@H]12 [DHEA, dehydroepiandrosterone]	–	> 200 µM
C[C@]12CC[C@@H]3c4ccc(OS(=O)(=O)O)cc4CC[C@H]3[C@@H]1CC[C@@H]2O [Estradiol3S, estradiol 3-sulfate]	> 200 µM	–
C[C@]12CC[C@@H]3c4ccc(OS(=O)(=O)O)cc4CC[C@H]3[C@@H]1C[C@@H](O)[C@@H]2O [Estriol3S, estriol 3-sulfate]	> 200 µM	–
C[C@]12CC[C@@H]3c4ccc(OS(=O)(=O)O)cc4CC[C@H]3[C@@H]1CCC2=O [Estrone3S, estrone 3-sulfate]	> 200 µM	–
CC(=O)C1CCC2C3CC=C4CC(OS(=O)(=O)O)CCC4(C)C3CCC12C (centres unmarked) [PREG3S, pregnenolone 3-sulfate]	76.6 µM	–
